Data: patent US10428044B2, “3-amino-1,5,6,7-tetrahydro-4H-indol-4-ones” (Bayer Pharma Aktiengesellschaft, priority 2014, dated 2019)

Target: (recombinant) catalytic domain of human Bub1 (amino acids 704-1085) (Homo sapiens (Human), UniProt O43683)
Test: Bub1 kinase assay (TR-FRET)
Type: biochemical
Settings: ATP 10 μM final, peptide substrate 1 μM final, 60 min at 22° C., read-out: Biological Assay: Bub1 kinase assay median IC50
Summary of the method: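 Compounds were serially diluted 1:3.4 from 2 mM DMSO stocks and incubated with the enzyme reaction for 60 min at 22° C. The reaction was stopped with EDTA, and biotinylated peptide phosphorylation was read by TR-FRET using Eu anti-mouse IgG, anti-phosphoserine antibody and streptavidin-XL665. IC50 was fitted by 4-parameter logistic to inhibition normalized to no-inhibitor and no-enzyme controls.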

(recombinant) catalytic domain of human Bub1 (amino acids 704-1085), sequence (O43683 704-1085): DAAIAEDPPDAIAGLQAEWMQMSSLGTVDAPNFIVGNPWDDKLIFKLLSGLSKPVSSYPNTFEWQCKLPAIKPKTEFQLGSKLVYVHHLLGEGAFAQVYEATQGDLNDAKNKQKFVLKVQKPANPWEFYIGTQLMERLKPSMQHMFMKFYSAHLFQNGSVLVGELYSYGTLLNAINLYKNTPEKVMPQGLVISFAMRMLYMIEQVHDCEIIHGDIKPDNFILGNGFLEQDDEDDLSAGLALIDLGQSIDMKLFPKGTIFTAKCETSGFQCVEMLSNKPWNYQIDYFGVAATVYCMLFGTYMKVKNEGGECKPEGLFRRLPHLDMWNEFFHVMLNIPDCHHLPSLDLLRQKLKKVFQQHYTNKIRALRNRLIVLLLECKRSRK

| IC50 [nM] | SMILES |
| --- | --- |
| 6.57 | Cc1cc(COCC(=O)Nc2cc(-c3[nH]c4c(c3Nc3ccccc3)C(=O)CCC4)ccn2)no1 [Example 354, 2-[(5-methyl-1,2-oxazol-3-yl)methoxy]-N-{4-[4-oxo-3-(phenylamino)-4,5,6,7-tetrahydro-1H-indol-2-yl]pyridin-2-yl}acetamide] |
| 8.19 | Cc1noc(COCC(=O)Nc2cc(-c3[nH]c4c(c3Nc3ccccc3)C(=O)CCC4)ccn2)n1 [Example 349, 2-[(3-methyl-1,2,4-oxadiazol-5-yl)methoxy]-N-{4-[4-oxo-3-(phenylamino)-4,5,6,7-tetrahydro-1H-indol-2-yl]pyridin-2-yl}acetamide] |
| 47.5 | O=C1CCCc2[nH]c(-c3ccnc(NC(=O)C4CC4)c3)c(Nc3ccc(F)cc3)c21 [Example 314, N-(4-{3-[(4-fluorophenyl)amino]-4-oxo-4,5,6,7-tetrahydro-1H-indol-2-yl}pyridin-2-yl)cyclopropanecarboxamide] |
| 11.2 | Cn1cc(C(=O)Nc2cc(-c3[nH]c4c(c3Nc3ccccc3)C(=O)CCC4)ccn2)cn1 [Example 447, 1-methyl-N-{4-[4-oxo-3-(phenylamino)-4,5,6,7-tetrahydro-1H-indol-2-yl]pyridin-2-yl}-1H-pyrazole-4-carboxamide] |
| 10.9 | CC(=O)Nc1cc(-c2[nH]c3c(c2Nc2ccccc2)C(=O)CC(C(C)C)C3)ccn1 (centres unmarked) [Example 317, N-{4-[4-oxo-3-(phenylamino)-6-(propan-2-yl)-4,5,6,7-tetrahydro-1H-indol-2-yl]pyridin-2-yl}acetamide] |
| 17.7 | O=C(Nc1cc(-c2[nH]c3c(c2Nc2ccccc2)C(=O)CCC3)ccn1)c1ccccc1 [Example 238, N-{4-[4-oxo-3-(phenylamino)-4,5,6,7-tetrahydro-1H-indol-2-yl]pyridin-2-yl}benzamide] |
| 552 | O=C1CCCc2[nH]c(-c3ccnc(NC(=S)NCC4CC4)c3)c(Nc3ccccc3)c21 [Example 398, 1-(cyclopropylmethyl)-3-{4-[4-oxo-3-(phenylamino)-4,5,6,7-tetrahydro-1H-indol-2-yl]pyridin-2-yl}thiourea] |
| 6.25 | CC1(C)CC(=O)c2c([nH]c(-c3ccncc3)c2Nc2ccccc2)C1 [Example 1, 6,6-dimethyl-3-(phenylamino)-2-(pyridin-4-yl)-1,5,6,7-tetrahydro-4H-indol-4-one] |
| 25.3 | CC1(C)CC(=O)c2c([nH]c(-c3ccncc3)c2Nc2cnccc2CO)C1 [Example 510, 3-{[4-(hydroxymethyl)pyridin-3-yl]amino}-6,6-dimethyl-2-(pyridin-4-yl)-1,5,6,7-tetrahydro-4H-indol-4-one] |
| 14.4 | Cc1nnc(COCC(=O)Nc2cc(-c3[nH]c4c(c3Nc3ccccc3)C(=O)CCC4)ccn2)o1 [Example 353, 2-[(5-methyl-1,3,4-oxadiazol-2-yl)methoxy]-N-{4-[4-oxo-3-(phenylamino)-4,5,6,7-tetrahydro-1H-indol-2-yl]pyridin-2-yl}acetamide] |
| > 20000 | N#Cc1cnccc1-c1[nH]c2c(c1Nc1ccccc1)C(=O)CCC2 [Example 197, 4-[4-oxo-3-(phenylamino)-4,5,6,7-tetrahydro-1H-indol-2-yl]pyridine-3-carbonitrile] |
| 13.1 | CC(C)C1CC(=O)c2c([nH]c(-c3ccnc(N)c3)c2Nc2ccccc2)C1 (centres unmarked) [Example 49, 2-(2-aminopyridin-4-yl)-3-(phenylamino)-6-(propan-2-yl)-1,5,6,7-tetrahydro-4H-indol-4-one] |
| 12.9 | O=C1CC(C(F)(F)F)Cc2[nH]c(-c3ccncc3)c(Nc3ccccc3)c21 (single isomer, unassigned) [Example 440, 3-(phenylamino)-2-(pyridin-4-yl)-6-(trifluoromethyl)-1,5,6,7-tetrahydro-4H-indol-4-one] |
| 8.4 | CCCOc1cnccc1-c1[nH]c2c(c1Nc1ccccc1)C(=O)CC(C)(C)C2 [Example 405, 6,6-dimethyl-3-(phenylamino)-2-(3-propoxypyridin-4-yl)-1,5,6,7-tetrahydro-4H-indol-4-one] |
| 7.91 | Cc1nnc(COCC(=O)Nc2cc(-c3[nH]c4c(c3Nc3ccccc3)C(=O)CCC4)ccn2)s1 [Example 356, 2-[(5-methyl-1,3,4-thiadiazol-2-yl)methoxy]-N-{4-[4-oxo-3-(phenylamino)-4,5,6,7-tetrahydro-1H-indol-2-yl]pyridin-2-yl}acetamide] |
| 5350 | CC1(C)CC(=O)c2c([nH]c(-c3ccncc3)c2Nc2cccc(OCCO)c2)C1 [Example 106, 3-{[3-(2-hydroxyethoxy)phenyl]amino}-6,6-dimethyl-2-(pyridin-4-yl)-1,5,6,7-tetrahydro-4H-indol-4-one] |
| 6740 | CC(=O)N(C)c1cc(-c2[nH]c3c(c2Nc2ccccc2)C(=O)CC(C)(C)C3)ccn1 [Example 240, N-{4-[6,6-dimethyl-4-oxo-3-(phenylamino)-4,5,6,7-tetrahydro-1H-indol-2-yl]pyridin-2-yl}-N-methylacetamide] |
| 10.9 | Cn1ncnc1COCC(=O)Nc1cc(-c2[nH]c3c(c2Nc2ccccc2)C(=O)CCC3)ccn1 [Example 494, 2-[(1-methyl-1H-1,2,4-triazol-5-yl)methoxy]-N-{4-[4-oxo-3-(phenylamino)-4,5,6,7-tetrahydro-1H-indol-2-yl]pyridin-2-yl}acetamide] |

| IC50 [nM] | SMILES |
| --- | --- |
| 43.9 | O=C(Cc1ccccc1)Nc1cc(-c2[nH]c3c(c2Nc2ccccc2)C(=O)CCC3)ccn1 [Example 233, N-{4-[4-oxo-3-(phenylamino)-4,5,6,7-tetrahydro-1H-indol-2-yl]pyridin-2-yl}-2-phenylacetamide] |
| 58 | CC1(C)CC(=O)c2c([nH]c(-c3ccnc(N)c3)c2Nc2ccccc2)C1 [Example 122, 2-(2-aminopyridin-4-yl)-6,6-dimethyl-3-(phenylamino)-1,5,6,7-tetrahydro-4H-indol-4-one] |
| 15.9 | Cc1cc(CC(=O)Nc2cc(-c3[nH]c4c(c3Nc3ccccc3)C(=O)CCC4)ccn2)on1 [Example 289, 2-(3-methyl-1,2-oxazol-5-yl)-N-{4-[4-oxo-3-(phenylamino)-4,5,6,7-tetrahydro-1H-indol-2-yl]pyridin-2-yl}acetamide] |
| 13.8 | O=C(Nc1cc(-c2[nH]c3c(c2Nc2ccccc2)C(=O)CCC3)ccn1)c1ccc(F)cc1 [Example 266, 4-fluoro-N-{4-[4-oxo-3-(phenylamino)-4,5,6,7-tetrahydro-1H-indol-2-yl]pyridin-2-yl}benzamide] |
| 58.1 | CC1(C)CC(=O)c2c([nH]c(-c3ccncc3)c2Nc2ccc3ccsc3c2)C1 [Example 130, 3-(1-benzothiophen-6-ylamino)-6,6-dimethyl-2-(pyridin-4-yl)-1,5,6,7-tetrahydro-4H-indol-4-one] |
| 39.1 | CC1(C)CC(=O)c2c([nH]c(-c3ccncc3)c2Nc2ccccc2C(C)(C)O)C1 [Example 488, 3-{[2-(2-hydroxypropan-2-yl)phenyl]amino}-6,6-dimethyl-2-(pyridin-4-yl)-1,5,6,7-tetrahydro-4H-indol-4-one] |
| 362 | O=C(O)CNc1cc(-c2[nH]c3c(c2Nc2ccccc2)C(=O)CCC3)ccn1 [Example 369, N-{4-[4-oxo-3-(phenylamino)-4,5,6,7-tetrahydro-1H-indol-2-yl]pyridin-2-yl}glycine] |
| 94.4 | CC(C)CNC(=O)Nc1cc(-c2[nH]c3c(c2Nc2ccccc2)C(=O)CCC3)ccn1 [Example 381, 1-(2-methylpropyl)-3-{4-[4-oxo-3-(phenylamino)-4,5,6,7-tetrahydro-1H-indol-2-yl]pyridin-2-yl}urea] |
| 19.5 | CC1(C)CC(=O)c2c([nH]c(-c3ccncc3)c2Nc2cc(F)cc(Cl)c2)C1 [Example 19, 3-[(3-chloro-5-fluorophenyl)amino]-6,6-dimethyl-2-(pyridin-4-yl)-1,5,6,7-tetrahydro-4H-indol-4-one] |
| 422 | COc1ccc(Nc2c(-c3ccncc3)[nH]c3c2C(=O)CC(C)(C)C3)cc1 [Example 59, 3-[(4-methoxyphenyl)amino]-6,6-dimethyl-2-(pyridin-4-yl)-1,5,6,7-tetrahydro-4H-indol-4-one] |
| 61.6 | O=C(CCc1ccccc1)Nc1cc(-c2[nH]c3c(c2Nc2ccccc2)C(=O)CCC3)ccn1 [Example 235, N-{4-[4-oxo-3-(phenylamino)-4,5,6,7-tetrahydro-1H-indol-2-yl]pyridin-2-yl}-3-phenylpropanamide] |
| 8.26 | O=C(CCCc1ccccc1)Nc1cc(-c2[nH]c3c(c2Nc2ccccc2)C(=O)CCC3)ccn1 [Example 236, N-{4-[4-oxo-3-(phenylamino)-4,5,6,7-tetrahydro-1H-indol-2-yl]pyridin-2-yl}-4-phenylbutanamide] |
| 1050 | O=C1CCCc2[nH]c(-c3ccnc(NC(=S)NC4CCCC4)c3)c(Nc3ccccc3)c21 [Example 397, 1-cyclopentyl-3-{4-[4-oxo-3-(phenylamino)-4,5,6,7-tetrahydro-1H-indol-2-yl]pyridin-2-yl}thiourea] |
| 10.6 | O=C(COCc1ccccn1)Nc1cc(-c2[nH]c3c(c2Nc2ccccc2)C(=O)CCC3)ccn1 [Example 495, N-{4-[4-oxo-3-(phenylamino)-4,5,6,7-tetrahydro-1H-indol-2-yl]pyridin-2-yl}-2-(pyridin-2-ylmethoxy)acetamide] |
| 10 | O=C1CCCc2[nH]c(-c3ccnc(NC(=O)[C@H]4C[C@@H]4F)c3)c(Nc3ccccc3)c21 [Example 250, (R,S/S,R)-2-fluoro-N-{4-[4-oxo-3-(phenylamino)-4,5,6,7-tetrahydro-1H-indol-2-yl]pyridin-2-yl}cyclopropanecarboxamide] |
| 12700 | CC1(C)CC(=O)c2c([nH]c(-c3ccnc(N4CCC4)c3)c2Nc2ccccc2)C1 [Example 360, 2-[2-(azetidin-1-yl)pyridin-4-yl]-6,6-dimethyl-3-(phenylamino)-1,5,6,7-tetrahydro-4H-indol-4-one] |
| 20.4 | CC1(C)CC(=O)c2c([nH]c(-c3ccnc(F)c3)c2Nc2cccc(F)c2)C1 [Example 24, 3-[(3-fluorophenyl)amino]-2-(2-fluoropyridin-4-yl)-6,6-dimethyl-1,5,6,7-tetrahydro-4H-indol-4-one] |
